# Experimental data: BindingDB's records for patent US20240158406 (Chengdu Baiyu Pharmaceutical Co., 2024)
# Target: T1, Protein mono-ADP-ribosyltransferase TIPARP (Homo sapiens, UniProt Q7Z3E1)
# T1 sequence (Q7Z3E1 whole entry): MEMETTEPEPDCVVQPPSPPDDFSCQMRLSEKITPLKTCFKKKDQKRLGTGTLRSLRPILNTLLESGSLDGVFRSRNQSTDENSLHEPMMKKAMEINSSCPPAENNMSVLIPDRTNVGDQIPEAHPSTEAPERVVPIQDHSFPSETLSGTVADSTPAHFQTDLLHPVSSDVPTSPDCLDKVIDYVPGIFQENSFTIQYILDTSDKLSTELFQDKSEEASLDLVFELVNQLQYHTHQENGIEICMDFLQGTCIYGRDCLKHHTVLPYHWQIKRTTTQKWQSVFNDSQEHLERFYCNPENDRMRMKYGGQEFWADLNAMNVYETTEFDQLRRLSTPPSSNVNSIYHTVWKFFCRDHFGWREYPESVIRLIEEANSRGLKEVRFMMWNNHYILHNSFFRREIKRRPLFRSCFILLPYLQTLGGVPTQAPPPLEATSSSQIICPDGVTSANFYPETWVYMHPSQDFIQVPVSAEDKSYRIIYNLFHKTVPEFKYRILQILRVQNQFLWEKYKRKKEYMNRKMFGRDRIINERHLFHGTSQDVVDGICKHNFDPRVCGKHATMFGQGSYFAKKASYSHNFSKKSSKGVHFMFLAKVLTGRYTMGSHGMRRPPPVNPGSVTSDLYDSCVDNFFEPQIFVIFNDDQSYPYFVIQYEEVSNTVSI
# Test: Enzymatic Biochemical Assay of PARP
# Protocol: The specific scheme was as follows: the 1× histone mixture was added to a 96-well plate at 50 μL per well, and the plate was incubated overnight at 4° C. The next day, after the plate was washed with PBST, 200 μL of blocking buffer per well was added, and the plate was incubated for 90 min. After the plate was washed with PBST again, 5 μL of inhibitor, 20 μL of 1×PARP buffer and 25 μL of […] were added to each well, and the plate was incubated at room temperature for 30 min. After the plate was washed with PBST, 100 μL of Elisa ECL substrate A and B mixture was added to each well, chemiluminescence value was immediately read using a plate reader, and IC50 values were calculated.
smiles,measurement,value
"C[C@@H](COCc1nn2c(c1Cl)CN(c1cnc(C(F)(F)F)cn1)CC2)Nc1cn[nH]c(=O)c1C(F)(F)F [US20240158406, Compound 14]",IC50,< 10 nM
